Measured values published in publication PMC6631687, “Relevance of In Vitro Metabolism Models to PET Radiotracer Development: Prediction of In Vivo Clearance in Rats from Microsomal Stability Data” (Pharmaceuticals, 2019).
Like-named read-outs stand apart in the source and are kept apart here. One block for each molecule: values may come before it.

Tests used:
[1] = Microsomal stability assay (substrate depletion) in rat liver microsomes; type: in vitro ADME; conditions: male, Sprague Dawley; for half-life at 8 µM: pH 7.4, 8 µM substrate, 0.5 mg/mL protein, triplicate, read-out: In vitro t1/2 (SD); for CLint scaled at 8 µM: pH 7.4, scaled from in vitro t1/2 with fmic, 60 mg protein/g liver, 40 g liver/kg, read-out: CLint (SD), intrinsic clearance
Description: RLM (Sprague Dawley, male, 20 mg/mL protein concentration) were purchased from Thermo Fisher Scientific/Life Technologies (Darmstadt, Germany). Assay conditions (buffer, microsomal protein concentration, solvent) were evaluated and optimized in a preliminary study. RLM (0.5 mg/mL microsomal protein) and substrate (8 µM CBX, MCBX or CPFPX, 1 mM stock solutions in DMSO) were preincubated for 5 min at 37 °C in HEPES buffer (100 mM, pH 7.4) containing MgCl2 (3.3 mM). Reactions were initiated by addition of preheated NADPH (1.3 mM). Final incubation volume was 1 mL. Aliquots (100 µL) were withdrawn at 0, 2, 5, 10, 15 and 20 min and quenched with an equal volume of methanol/acetonitrile (50:50, v/v, cooled to −20 °C). The samples were mixed on a vortex mixer (1 min, 21 °C) and centrifuged (20,000 rcf, 10 min, 21 °C) to sediment precipitated protein. The supernatants (aliquots of 50 µL) were analyzed on a Knauer smartline HPLC-UV/VIS system (Knauer, Berlin, Germany) equipped with a manual sample injector (Rheodyne type 7125), a 500 µL sample loop and a Kromasil 100-5-C18 (4.6 × 250 mm) analytical column (AkzoNobel, Bohus, Sweden). Chromatography was performed using a mobile phase composition of ACN/H2O/HAc 48:52:0.2 (v/v/v), and with a flow rate of 1 mL/min and a detection wavelength of 275 nm. Experiments were conducted in triplicate.
Substrate depletion was calculated from the area ratios of the analyte peak, using the value at t = 0 min as 100%. Depletion data were fitted to the monoexponential decay model (Equation (1)) to derive in vitro t1/2. (1) C(t)=C0e^−ln2/t1/2t where C0 is the substrate concentration at time t = 0.
(§1) Intrinsic clearance was calculated from in vitro t1/2 using the equation [38]:(2) CLint=ln2/in vitro t1/2 (min)×fmic×ml incubation/mg microsomal protein×mg microsomal protein/g liver weight×g liver/kg body weight where scaling factors of 60 mg of microsomal protein per gram of liver and 40 g of liver tissue per kilogram of body weight were applied.

Lipophilicity (log P) = type: physicochemical
Description: Table 1 Metabolic stability of the xanthine A1AR ligands in rat liver microsomes and predicted plasma clearance (CLp). Experiments were conducted in triplicate. fmic, unbound fraction in microsomes; CLint, intrinsic clearance; SD, standard deviation. | column: Log P

[2] = Prediction of in vivo plasma clearance from microsomal stability data (well-stirred liver model) and prediction accuracy; type: in vitro ADME; conditions: rat; for Fold Error CL (ratio predicted/observed) / Fold Underprediction CL: predicted vs observed CLp; for CLp Predicted (SD), predicted plasma clearance: well-stirred liver model, corrected for microsomal and plasma protein binding
Description: as §1
In vivo clearance in plasma was predicted using the well-stirred liver model:(4) CLp=Q×fp×CLint/Q+fp×CLint where fp is the fraction unbound in plasma and Q is hepatic blood flow with a given value of 55 mL/min/kg for rat.
The individual prediction accuracy was assessed by calculation of fold error (ratio predicted/observed). AFE (Equation (5)) and RMSE (Equation (6)) were used as measures for overall bias and precision. Underprediction was also expressed as fold underprediction, which is the inverse of AFE. (5) AFE=10^1/n∑logpredicted/observed (6) RMSE=1/n∑(predicted−observed)^2 with n, number of predictions.

[3] = In vivo pharmacokinetics in rat plasma after i.v. administration; conditions: for half-life / clearance / Vd: iv, single i.v. dose approx. 0.4 nmol, mean plasma curves, triexponential fit; for half-life: read-out: t1/2,term (terminal half-life); for clearance: read-out: CLp (plasma clearance, in vivo); for Vd: read-out: Vd (volume of distribution); for Parent fraction (authentic radiotracer of total plasma radioactivity): rat plasma, 180 min p.i., radio-TLC
Description: Pharmacokinetic experiments on rats (n = 27) were conducted under isoflurane anesthesia (1.5–2% in oxygen) with continuous monitoring of physiological parameters. Polyethylene catheters (PE 50; filled with heparinized saline) were implanted into the femoral artery for arterial blood sampling and the lateral tail vein for radiotracer application. [^18F]CPFPX, [^18F]MCBX or [^18F]CBX (21 ± 2.5 MBq, 0.39 ± 0.20 nmol) was formulated in physiological saline (1 mL total volume) and administered over 1 min using a syringe pump (model 44, Harvard Apparatus, Holliston, MA, USA). Arterial blood samples (ca. 200 μL) were collected at regular time intervals throughout the 180-min experiment. The total blood sampling volume was kept below 10% of the circulating blood volume of the animal. Plasma was separated by centrifugation (3,000 rcf, 3 min, 21 °C), weighed and measured in a γ-counter (ISOMED 2100, MED Nuklear-Medizintechnik Dresden GmbH, Dresden, Germany) to calculate plasma radioactivity concentration. Fractions of unchanged radiotracer (parent fraction) and radiolabeled metabolites in plasma were assessed by radio-thin layer chromatography (TLC) analysis. Aliquots (45 μL) of plasma were mixed with 3 volumes of methanol/acetonitrile (50:50, v/v, 4 °C), vortexed (1 min, 21 °C) and centrifuged (20,000 rcf, 5 min, 21 C) to sediment precipitated protein. Aliquots (5 μL) of the supernatants were spotted on a TLC plate (SIL G-25, 10 × 20 cm, Macherey-Nagel, Düren, Germany). The TLC plate was developed with ethyl acetate/hexane, 75:25 (v/v), dried and subsequently imaged for 50 min with an electronic autoradiography system (InstantImager, Canberra-Packard, Rüsselsheim, Germany).
PK analysis was performed on decay and metabolite-corrected plasma radioactivity data of 8 ([^18F]CBX, [^18F]CPFPX) or 9 ([^18F]MCBX) individual animals. Data of 2 animals could not be used for PK analysis due to paravenous radiotracer injection. Since interindividual variations in plasma kinetics within the test groups were relatively small, individual plasma data were combined to mean data sets for analysis. Assuming a specific density of 1 g/mL for plasma, radioactivity concentration was calculated and plotted against time. For data visualization, plasma radioactivity concentration was normalized to body weight and amount of injected radioactivity, yielding SUV. PK parameters were derived from the radioactivity concentration-time data via nonlinear regression analysis applying a triexponential model:(7) Cp(t)=A1e^−λ1t+A2e^−λ2t+A3e^−λ3t where Cp is the plasma radioactivity concentration, t is time, A1, A2, and A3 represent the y-intercepts of the distribution/elimination phases of the plasma concentration-time curve and λ1, λ2, and λ3 represent the first-order rate constants of the phases.
Plasma clearance, volume of distribution and terminal half-life were calculated from the model parameters A and λ according to the following equations [44]:(8) CLp=D/∫0∞Cp(t)dt=D/∑i=1nAi/λi (9) Vd=Clp/λ3 (10) t1/2,term=ln 2/λ3 where D is the injected radioactivity and λ3 is the terminal rate constant.

SMILES: CCCn1c(=O)c2nc(C3CCCC3)[nH]c2n(CCCF)c1=O [CPFPX, reference compound]
half-life at 8 µM [1]: 14 min | CLint scaled at 8 µM [1]: 295 mL/min/kg | logP (Lipophilicity (log P)): 2.93 | Fold Error CL (ratio predicted/observed) [2]: 0.66 | CLp Predicted (SD), predicted plasma clearance [2]: 4.70 (0.07) mL/min/kg

SMILES: CCCn1c(=O)c2[nH]c(C3(C)CCC3)nc2n(CCC[18F])c1=O [[^18F]MCBX, 3-(3-[^18F]fluoropropyl)-8-(1-methylcyclobutyl)-1-propylxanthine]
Fold Error CL (ratio predicted/observed) [2]: 0.85 | Fold Underprediction CL [2]: 1.2 | half-life ([3]; 0.39 nmol, rat): ~50 min | clearance ([3]; rat): 9.1 mL/min/kg | Vd ([3]; rat): 0.715 L/kg | half-life ([3]; rat): 54.5 min | Parent fraction (authentic radiotracer of total plasma radioactivity) [3]: ~13%

SMILES: CCCn1c(=O)c2[nH]c(C3(C)CCC3)nc2n(CCCF)c1=O [MCBX]
half-life at 8 µM [1]: 19.8 min | CLint scaled at 8 µM [1]: 204 mL/min/kg | logP (Lipophilicity (log P)): 2.82 | CLp Predicted (SD), predicted plasma clearance [2]: 7.76 (0.22) mL/min/kg

SMILES: CCCn1c(=O)c2[nH]c(C3CCCC3)nc2n(CCC[18F])c1=O [[^18F]CPFPX, 8-cyclopentyl-3-(3-[^18F]fluoropropyl)-1-propylxanthine, reference compound]
Fold Error CL (ratio predicted/observed) [2]: 0.66 | Fold Underprediction CL [2]: 1.5 | half-life ([3]; 0.39 nmol, rat): ~50 min | clearance ([3]; rat): 7.1 mL/min/kg | Vd ([3]; rat): 0.523 L/kg | half-life ([3]; rat): 51 min | Parent fraction (authentic radiotracer of total plasma radioactivity) [3]: approximately 7%

The remaining lines, values ahead:

Fold Error CL (ratio predicted/observed) [2]: 0.84 | Fold Underprediction CL [2]: 1.2 | clearance ([3]; rat): 3.22 mL/min/kg | Vd ([3]; rat): 0.356 L/kg | half-life ([3]; rat): 76.5 min | Parent fraction (authentic radiotracer of total plasma radioactivity) [3]: ~25% | Plasma level relative to [^18F]CPFPX ([3]; rat, second and third phase of the curve (10-180 min p.i.)): approximately twice as high
SMILES: CCCn1c(=O)c2[nH]c(C3CCC3)nc2n(CCC[18F])c1=O [[^18F]CBX, 8-cyclobutyl-3-(3-[^18F]fluoropropyl)-1-propylxanthine]

half-life at 8 µM [1]: 35.1 min | CLint scaled at 8 µM [1]: 106 mL/min/kg | logP (Lipophilicity (log P)): 2.19 | CLp Predicted (SD), predicted plasma clearance [2]: 2.72 (0.13) mL/min/kg
SMILES: CCCn1c(=O)c2[nH]c(C3CCC3)nc2n(CCCF)c1=O [CBX]
